In ChEMBL document CHEMBL3045652, “Biorational glycol diesters as dietary toxins versus bioefficacy of sucrose octanoate against lepidopteran larvae” (Ind Crops Prod, 2012):
Values after ≈ are worked out from the molar mass of the structure shown.

Tests used:
[1] = tested on: Helicoverpa armigera; experiment: Antifeedant activity against third-instar larval stage of Helicoverpa armigera fed with artificial diet containing compound assessed as relative growth rate at 8.21 mg/ml after 3 days (reference value: 0.97 +/- 0.13 mg/mg/day); assay type: functional
[2] = tested on: Spodoptera litura; experiment: Antifeedant activity against third-instar larval stage of Spodoptera litura fed with artificial diet containing compound assessed as relative growth rate at 5.9 mg/ml after 3 days (reference value: 1.37 +/- 0.12 mg/mg/day); assay type: functional
[3] = tested on: Spodoptera litura; experiment: Antifeedant activity against third-instar larval stage of Spodoptera litura fed with artificial diet containing compound assessed as relative consumption rate at 5.9 mg/ml after 3 days (reference value: 2.13 +/- 0.18 mg/mg/day); assay type: functional
[4] = tested on: Helicoverpa armigera; experiment: Insecticidal activity against second-instar larval stage of Helicoverpa armigera fed with artificial diet containing compound assessed as growth inhibition after 7 days; assay type: functional, organism-based; settings: for EC50: 168 h
[5] = tested on: Helicoverpa armigera; experiment: Antifeedant activity against third-instar larval stage of Helicoverpa armigera fed with artificial diet containing compound assessed as efficiency index of ingested food at 8.21 mg/ml after 3 days (reference value: 52%); assay type: functional
[6] = tested on: Spodoptera litura; experiment: Antifeedant activity against third-instar larval stage of Spodoptera litura fed with artificial diet containing compound assessed as efficiency index of ingested food at 5.9 mg/ml after 3 days (reference value: 64.5%); assay type: functional
[7] = tested on: Helicoverpa armigera; experiment: Antifeedant activity against third-instar larval stage of Helicoverpa armigera fed with artificial diet containing compound assessed as relative consumption rate at 8.21 mg/ml after 3 days (reference value: 1.88 +/- 0.14 mg/mg/day); assay type: functional
[8] = tested on: Spodoptera litura; experiment: Insecticidal activity against second-instar larval stage of Spodoptera litura fed with artificial diet containing compound assessed as mortality after 7 days; assay type: functional; settings: 168 h
[9] = tested on: Helicoverpa armigera; experiment: Insecticidal activity against second-instar larval stage of Helicoverpa armigera fed with artificial diet containing compound assessed as mortality after 7 days; assay type: functional; settings: 168 h
[10] = tested on: Spodoptera litura; experiment: Insecticidal activity against second-instar larval stage of Spodoptera litura fed with artificial diet containing compound assessed as growth inhibition after 7 days; assay type: functional, organism-based; settings: for EC50: 168 h
[11] = tested on: Helicoverpa armigera; experiment: Antifeedant activity against third-instar larval stage of Helicoverpa armigera fed with artificial diet containing compound assessed as efficiency index of ingested food at 7.38 mg/ml after 3 days (reference value: 52%); assay type: functional
[12] = tested on: Spodoptera litura; experiment: Antifeedant activity against third-instar larval stage of Spodoptera litura fed with artificial diet containing compound assessed as relative consumption rate at 5.6 mg/ml after 3 days (reference value: 2.13 +/- 0.18 mg/mg/day); assay type: functional
[13] = tested on: Spodoptera litura; experiment: Antifeedant activity against third-instar larval stage of Spodoptera litura fed with artificial diet containing compound assessed as efficiency index of ingested food at 5.6 mg/ml after 3 days (reference value: 64.5%); assay type: functional
[14] = tested on: Helicoverpa armigera; experiment: Antifeedant activity against third-instar larval stage of Helicoverpa armigera fed with artificial diet containing compound assessed as relative growth rate at 7.38 mg/ml after 3 days (reference value: 0.97 +/- 0.13 mg/mg/day); assay type: functional
[15] = tested on: Helicoverpa armigera; experiment: Antifeedant activity against third-instar larval stage of Helicoverpa armigera fed with artificial diet containing compound assessed as relative consumption rate at 7.38 mg/ml after 3 days (reference value: 1.88 +/- 0.14 mg/mg/day); assay type: functional
[16] = tested on: Spodoptera litura; experiment: Antifeedant activity against third-instar larval stage of Spodoptera litura fed with artificial diet containing compound assessed as relative growth rate at 5.6 mg/ml after 3 days (reference value: 1.37 +/- 0.12 mg/mg/day); assay type: functional
[17] = tested on: Spodoptera litura; experiment: Antifeedant activity against third-instar larval stage of Spodoptera litura fed with artificial diet containing compound assessed as relative growth rate at 6.25 mg/ml after 3 days (reference value: 1.37 +/- 0.12 mg/mg/day); assay type: functional
[18] = tested on: Helicoverpa armigera; experiment: Antifeedant activity against third-instar larval stage of Helicoverpa armigera fed with artificial diet containing compound assessed as relative growth rate at 7.15 mg/ml after 3 days (reference value: 0.97 +/- 0.13 mg/mg/day); assay type: functional
[19] = tested on: Helicoverpa armigera; experiment: Antifeedant activity against third-instar larval stage of Helicoverpa armigera fed with artificial diet containing compound assessed as relative consumption rate at 7.15 mg/ml after 3 days (reference value: 1.88 +/- 0.14 mg/mg/day); assay type: functional
[20] = tested on: Helicoverpa armigera; experiment: Antifeedant activity against third-instar larval stage of Helicoverpa armigera fed with artificial diet containing compound assessed as efficiency index of ingested food at 7.15 mg/ml after 3 days (reference value: 52%); assay type: functional
[21] = tested on: Spodoptera litura; experiment: Antifeedant activity against third-instar larval stage of Spodoptera litura fed with artificial diet containing compound assessed as efficiency index of ingested food at 6.25 mg/ml after 3 days (reference value: 64.5%); assay type: functional
[22] = tested on: Spodoptera litura; experiment: Antifeedant activity against third-instar larval stage of Spodoptera litura fed with artificial diet containing compound assessed as relative consumption rate at 6.25 mg/ml after 3 days (reference value: 2.13 +/- 0.18 mg/mg/day); assay type: functional

Compound | growth inhibition (GI) [4] | EC50 [4] [µg/mL] | LC50 [8] [µg/mL] | LC50 [9] [µg/mL] | growth inhibition (GI) [10] | EC50 [10] [µg/mL] | other results
CCCC(=O)OCC(C)OC(=O)CCC (configuration not stated) | Dose-dependent effect | 5670 (≈ 26.2 mM) | 2000 (≈ 9.25 mM) | 2000 (≈ 9.25 mM) | Dose-dependent effect | 4210 (≈ 19.5 mM) | Activity [1]: 0.67 mg/mg/day; Activity [2]: 1.04 mg/mg/day; Activity [3]: 1.98 mg/mg/day; ECI [5]: 38.2%; ECI [6]: 12%; Activity [7]: 1.77 mg/mg/day
CC(COC(=O)C(C)C)OC(=O)C(C)C (configuration not stated) | Dose-dependent effect | 7340 (≈ 33.9 mM) | 2000 (≈ 9.25 mM) | 2000 (≈ 9.25 mM) | Dose-dependent effect | 5210 (≈ 24.1 mM) | ECI [11]: 30.4%; Activity [12]: 2.12 mg/mg/day; ECI [13]: 13%; Activity [14]: 0.58 mg/mg/day; Activity [15]: 1.91 mg/mg/day; Activity [16]: 1.09 mg/mg/day
CCCCCCCC(=O)OCC(C)OC(=O)CCCCCCC (configuration not stated) | Dose-dependent effect | 4380 (≈ 13.3 mM) | 2000 (≈ 6.09 mM) | 2000 (≈ 6.09 mM) | Dose-dependent effect | 3820 (≈ 11.6 mM) | Activity [17]: 0.88 mg/mg/day; Activity [18]: 0.7 mg/mg/day; Activity [19]: 1.86 mg/mg/day; ECI [20]: 37.9%; ECI [21]: 18%; Activity [22]: 2.21 mg/mg/day
CCCCCCCC(=O)OCCOCCOC(=O)CCCCCCC [DIETHYLENE GLYCOL DIOCTANOATE] | Dose-dependent effect | 2880 (≈ 8.03 mM) | – | – | Dose-dependent effect | 1540 (≈ 4.3 mM) | –
CCCCC(=O)OCCOCCOC(=O)CCCC [DIETHYLENE GLYCOL DIPENTANOATE] | Dose-dependent effect | 3870 (≈ 14.1 mM) | – | – | Dose-dependent effect | 1880 (≈ 6.85 mM) | –
CCCCCC(=O)OCCOC(=O)CCCCC [ETHYLENE GLYCOL DIHEXANOATE] | Dose-dependent effect | 2160 (≈ 8.36 mM) | – | – | Dose-dependent effect | 1780 (≈ 6.89 mM) | –
CC(C)C(=O)OCCOC(=O)C(C)C [ETHYLENE GLYCOL DIISOBUTANOATE] | Dose-dependent effect | 5880 (≈ 29.1 mM) | – | – | Dose-dependent effect | 5000 (≈ 24.7 mM) | –
